{
  "source": "patent US20020111314A1",
  "about": "“Novel stimulation of gene expression and protein synthesis of heat shock protein 72/73 (Hsp 70)” (The Trustees of Columbia University, priority 1995, published 2002)",
  "tested_on": "Hsp70",
  "test": "Hsp70 induction in HepG2 cells ([3H]-leucine labeling, denaturing immunoprecipitation)",
  "format": "cell-based, human",
  "details": "for Hsp70 levels after removal of ALLN: 4-hour preincubation",
  "procedure": "HepG2 cells were grown up to 95% confluence and then preincubated for 4 hours in a 37° C. incubator with serum-free minimum essential medium (MEM), followed by radiolabeling with 3H-leucine (150 μCi/ml) dissolved in serum-free, leucine-free medium. Preincubation and labeling medium each contained 1.5% bovine serum albumin (BSA) plus different concentrations of ALLN as indicated. After labeling, cells were collected and lysed, and Hsp70 was immunoprecipitated under denaturing conditions as described under Experimental Details. Cell lysates containing an equal amount of TCA-insoluble radioactivity were used for immunoprecipitation. (A): The immunoprecipitates were analyzed by sodium dodecyl sulfate-polyacryamide gel electrophoresis (SDS-PAGE) and fluorography. Numbers on the left-hand side denote molecular markers. (B): The Hsp70 radioactivity was quantitated by scintillation counting and plotted. All the values were presented as means±SD from three individual culture dishes.\nFIGS. 3A-3B: Effects of the other protease inhibitors on Hsp70 biosynthesis in HepG2 cells. HepG2 cells were preincubated in serum-free MEM containing either 1.5% BSA alone (Control), or BSA plus 40 μg/ml of ALLN, 40 μg/ml of ALLM, 50 μg/ml of leupeptin, 50 μg/ml of pepstatin A, 25 μg/ml of E-64d, 1 mM of phenylmethylsulfonyl fluoride (PMSF), 100 KIU/ml of apotinin, 1 mM of Benzamidine (Benz), 200 μM of calpain inhibitor peptide (CIP). Radiolabeling (in the presence of protease inhibitors), lysis and immunoprecipitation were performed as described in FIG. 1. The Hsp70 specific radioactivity (A) and the amount of total incorporated radioactivity (TCA-cpm) (B) were compared with each other. All the values were presented as the mean±SD from three individual culture dishes.\nFIGS. 9A-9B: Effects of proteasome inhibitors on Hsp70 induction. HepG2 cells were preincubated with the proteasome inhibitors MG132 at a final concentration of either 10 μM or 30 μM (A), or lactacystin at 10 μM (B) for 4 hours under conditions described in FIG. 3. These cells were then subjected to radiolabeling (30 min), cell lysis, and immunoprecipitation with anti-Hsp70 antibody. The experiments with MG132 (A) were repeated twice; the effects of lactacystin (B) were studied in triplicate culture dishes.\nALLN, leupeptin, mouse anti-human Hsp72/73 monoclonal antibody, a secondary antibody conjugated with horseradish peroxidase (HRP) (goat anti-rabbit immunoglubin G [IgG]), and rabbit anti-rat IgG antibody were from Boehringer Mannheim Co. Anti-Human Hsp25 and anti-human Hsp60 monoclonal antibodies, ALLM, Calpain inhibitor peptide (CIP), dimethyl sulfoxide (DMSO) and dithiothreitol (DTT) were from Sigma. Human Hsp70 oligonucleotide probe was from Oncogene Science. This oligonucleotide was ^32P labeled at the 5′-end by T4 Kinase, which was from Biolabs. ^32P was from ICN Pharmaceutical Inc. L-[4,5-^3H] leucine was from Amersham Co. Anti-human Bip (immunoglobulin heavy chain binding protein, also called Grp78), anti-human Hsp27, anti-human Hsp60, and anti-human Hsp90 monoclonal antibodies were from Stress Genes. Anti-human Hsp86 and Hsp104 antibodies were from Affinity Bioreagent Inc. Nitrocellular transfer and immobilization membranes were from Schleicher & Schuell, Keene, N.H. RNA extraction kits were from Biotect, Tex. The polyclonal antibody against the human HSF1 protein was a generous gift from Dr. Carl Wu of the National Institute of Health (Rabindran, et al., 1993). Ethylene glycol bis(succunimidylsuccinate) (EGS) was from Pierce. Cbz-leucyl-leucyl-leucinal (MG132) was a gift of Dr. H. Ploegh at the Massachusetts Institute of Technology. All the other tissue culture supplies and chemicals were obtained from supplies as previously described (Dixon, et al., 1991). The HepG2 cell culture conditions were maintained as previously described (Dixon, et al., 1991).",
  "note": "Square brackets hold non-standard residues; d marks the D form. Peptide text beside a SMILES is read from it. Nle = CCCC[C@H](N)C(=O)O",
  "data": [
    {"smiles": "CCCC[C@@H](C=O)NC(=O)[C@H](CC(C)C)NC(=O)[C@H](CC(C)C)NC(C)=O", "note": "[ALLN, N-acetyl-leucyl-leucyl-norleucinal] (Ac-Leu-Leu-[Nle]-aldehyde)", "values": [
      {"measurement": "Hsp70 levels after removal of ALLN", "setting": "HepG2, end of a 2-hour wash", "result": 25, "unit": "fold"},
      {"measurement": "Hsp70 levels after removal of ALLN", "setting": "HepG2, end of a 6-hour wash", "result": 8, "unit": "fold"},
      {"measurement": "Hsp70 levels after removal of ALLN", "setting": "HepG2, end of an 8-hour wash", "result": 4, "unit": "fold"},
      {"measurement": "increment of newly synthesized Hsp70 levels compared with untreated cells", "setting": "HepG2, 30 min labeling, ALLN 40 μg/ml, data from several experiments", "result": "~30", "unit": "fold"},
      {"measurement": "response of cellular Hsp70 levels to ALLN dose", "setting": "HepG2, 4 hours, different doses (FIG. 1)", "result": "dose-dependent response"},
      {"measurement": "induction of Hsp70 by protease inhibitors (FIG. 3A)", "setting": "HepG2, 4 h pre-treatment, ALLN 40, ALLM 40, leupeptin 50, pepstatin A 50, E-64d 25 μg/ml, PMSF 1 mM, aprotinin 100 KIU/ml", "result": "significantly induce"},
      {"measurement": "increase in rate of incorporation of [3H]-leucine into Hsp70", "setting": "HepG2, 4 h preincubation with ALLN 40 μg/ml, labeling 10-60 min, every time point", "result": "about 25 fold"},
      {"measurement": "Hsp70 levels induced", "setting": "HepG2, low concentration of ALLN 10 μg/ml, 4 h pre-treatment", "result": "more than 9 fold"},
      {"measurement": "induction of Hsp70 levels above baseline", "setting": "HepG2 cells and human endothelial cells", "result": "up to 30 fold"}
    ]}
  ]
}
